Source: patent US4748274A, “4-hydroxy-4-(substituted alkenyl)cyclohexanecarboxylic acids” (Merrell Dow Pharmaceuticals Inc., priority 1986, dated 1988)
pIC50: −log10 of the molar value. Values belong to the compound of their own block, whether it stands above or below them.

How the values were obtained:
[1] = molecular target: T1, leukotriene D4 (longitudinal muscle of guinea pig ileum) (Cavia porcellus, UniProt Q2NNR5); test: Antagonism of leukotriene D4 contraction, longitudinal muscle of guinea pig ileum; format: cell-based; conditions: LTD4 concentration-response, 15 min preincubation, 1 μM indomethacin, 37° C., Arunlakshana and Schild method; for Kb: read-out: G.P. ILEUM pA2 (LTD4) (converted)
T1 construct: The longitudinal muscle was then carefully dissected from the circular muscle of the ileum; from tissue; host or cells: guinea pig terminal ileum, longitudinal muscle segments
T1 sequence (Q2NNR5 1-340): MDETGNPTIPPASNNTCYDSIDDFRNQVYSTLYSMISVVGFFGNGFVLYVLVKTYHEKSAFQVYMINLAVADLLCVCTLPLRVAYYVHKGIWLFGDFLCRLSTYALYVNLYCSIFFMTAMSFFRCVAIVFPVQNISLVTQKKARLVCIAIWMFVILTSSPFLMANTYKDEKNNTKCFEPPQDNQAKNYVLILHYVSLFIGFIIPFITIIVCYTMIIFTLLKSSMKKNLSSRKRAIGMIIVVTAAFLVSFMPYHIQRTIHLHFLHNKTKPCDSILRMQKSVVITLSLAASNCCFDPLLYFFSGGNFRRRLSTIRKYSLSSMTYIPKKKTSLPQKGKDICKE
Protocol: Longitudinal Muscle of Guinea Pig Ileum
Male, Hartley-Duncan, guinea pigs were sacrificed by cervical dislocation. The terminal portion of the ileum was removed, rinsed, and placed in Burn's modified Tyrode's solution. The longitudinal muscle was then carefully dissected from the circular muscle of the ileum. The longitudinal muscle was cut into 1-2 cm. segments which were placed in a tissue bath containing oxygenated Burn's modified Tyrode's solution warmed to 37° C. A tension of 1.0 gram was then placed on each segment of muscle. After equilibration for 1 hour, 1 μM Indomethacin was added to each bath. After 5 minutes, each tissue segment was then exposed to a concentration of 60 nM leukotriene D4. This response was then considered to be the initial maximal contraction that each segment will produce. After washing the tissue several times, over a 1 hour period, 1 μM lndomethacin was again added to each bath. After a 5 minute period the test agent or vehicle was added to the bath. After 15 minutes, a concentration-response curve was generated using cumulatively increasing concentrations of leukotriene D4. The concentration-response was then compared to the initial maximum contraction. A test compound was considered active, if at concentrations up to 100 μM, it produces a significant shift to the right of the concentration-response relationship to leukotriene D4. The antagonist activity was quantitated in terms of a pA2 value calculated according to the method described by Arunlakshana and Schild, (Brit. J. Pharmac. Chemotherap. 14; 48, 1959).

[2] = molecular target: T2, 3H-LTD4 specific receptor (guinea pig lung membranes) (Cavia porcellus, UniProt Q2NNR5); test: 3H-LTD4 specific receptor binding in guinea pig lung membranes; conditions: 3H-LTD4, 50 mM Tris-HCl pH 7.6, 37° C., 20-40 min; read-out: G.P. LUNG SPECIFIC BINDING IC50
T2 construct: from tissue; host or cells: guinea pig lung membranes
T2 sequence (Q2NNR5 1-340): T1 sequence (Q2NNR5 1-340)
Protocol: 3H-LTD4 - Specific Receptor Binding in Guinea Pig Lung Membranes
Male guinea pigs were sacrificed and the lungs were removed and placed in ice cold 50 mM Tris-HCl buffer, pH 7.4. The lungs were then homogenized with a Polytron homogenizer and the homogenate was centrifuged at 1000 g for 10 minutes at 4° C. The supernatant was then centrifuged at 30,000 g for 15 minutes at 4° C. to obtain the membrane pellet. This pellet was resuspended in 50 mM Tris-HCl to provide the working suspension of lung membranes. Binding assays were then carried out in 50 mM Tris-HCl at pH 7.6 and 37° C. using incubation periods of 20-40 min. Separation of bound ^3 H-LTD4 from free ^3 H-LTD4 were performed by rapid vacuum filtration through Whatman GF/B glass fiber filters using ice cold Tris-HCl buffer and three 4 ml washes. Filtration and washing were completed in less than 8 seconds. The radioactivity on the filters was then measured. Specific binding of ^3 H-LTD4 was defined as the binding of ^3 H-LTD4 in the absence of unlabelled LTD4 minus the binding of ^3 H-LTD4 in the presence of 2×10^-7 M unlabelled LTD4. Specific binding of ^3 H-LTD4 was 60-80% of total binding. […] In these tests increasing concentrations of the agent are used to block the ^3 H-LTD4 specific binding. The concentration that reduces the specific binding of ^3 H-LTD4 by 50% is termed the IC50.

[3] = tested on: leukotriene D4 (induced bronchoconstriction); test: In vivo leukotriene D4 antagonist activity in anesthetized guinea pigs, modified Konzett-Rossler preparation; design: species or system guinea pig; conditions: LTD4 50 or 100 ng/kg i.v.
Protocol: In Vivo Biological Activity
Compounds of the present invention were also tested for in vivo leukotriene D4 antagonist activity in anesthetized guinea pigs using a modified Konzett-Rossler preparation. Specifically, the guinea pigs were anesthetized with sodium pentobarbital and surgically prepared for artificial ventilation by a constant volume respirator. The inflation pressure produced by the respirator was measured for each inflation of the guinea pigs' lungs. Increases in inflation pressure above baseline are indicative of bronchoconstriction. After establishing a baseline inflation pressure, bronchoconstriction was induced by an intravenous challenge with 50 or 100 ng/kg leukotriene D4. This response was considered the initial response. After the inflation pressure returned to baseline, the guinea pig was treated with the desired dosage of test compound or vehicle, given intravenously (i.v.) or intraduodenally (i.d.), and rechallenged with leukotriene D at one minute [following i.v. administration]or 5 and 20 minutes [following i.d. administration]. This response was then compared to the initial response and the % inhibition of the response was determined. The results can be summarized as follows, with the inhibition values given for administration by the i.d. route being the greater of the two results obtained.

[4] = 1.0 mg/kg i.d., greater of results at 5 and 20 minutes

Kb [1]: 0.245 nM | pIC50 [2]: 5.06
Compound: CCCCCCCCCCCCC/C=C\C(SCCC(=O)O)[C@]1(O)CC[C@H](C(=O)O)CC1 (relative stereo) [Example 10H, [1α,4β,4(Z)]-4-[1-[(2-CarbOxyethyl)thio]-2-hexadecenyl]-4-hydroxycyclohexanecarboxylic acid]

Kb [1]: 2.69 nM | pIC50 [2]: 5.10
Compound: CCCCCCCCCCCCC/C=C\C(SCCC(=O)NCC(=O)O)[C@]1(O)CC[C@H](C(=O)O)CC1 (relative stereo) [Example 10L, [1α,4β,4(Z)]-4-[1-[[3-[(carboxymethyl)amino]-3oxopropyl]thio]-2-hexadecenyl]-4-hydroxycyclohexanecarboxylic acid]
PERCENT INHIBITION ([3]; 0.5 mg/kg i.v., rechallenge at one minute): 74% | PERCENT INHIBITION [3, 4]: 25%

Compound: CCCCCCCCCCCCC/C=C\C(SCCCC(=O)O)[C@]1(O)CC[C@@H](C(=O)O)CC1 (relative stereo) [Example 10I, [1α,4α,4(Z)]-4-[1-[(3-carboxypropyl)thio]-2-hexadecenyl]-4-hydroxycyclohexanecarboxylic acid]
PERCENT INHIBITION ([3]; 0.05 mg/kg i.v., rechallenge at one minute): 19%

Kb [1]: 5.5 nM | pIC50 [2]: 5.15
Compound: CCCCCCCCCCCCC/C=C\C(SCCCC(=O)O)[C@]1(O)CC[C@H](C(=O)O)CC1 (relative stereo) [Example 10J, [1α,4β,4(Z)]-4-[1-[(3-carboxypropyl)thio]-2-hexadecenyl]-4-hydroxycyclohexanecarboxylic acid]
PERCENT INHIBITION ([3]; 0.5 mg/kg i.d., greater of results at 5 and 20 minutes): 48% | PERCENT INHIBITION [3, 4]: 53%

G.P. ILEUM pA2 (LTD4) [1]: 7.87
Compound: CCCCCCCCCCCCCC=CC(SCCC(=O)O)C1(O)CCC(C(=O)O)CC1 (stereo not drawn) [Example 11, [1α,4β,4(E)]-4-[1-[(2-carboxyethyl)thio-2hexadecenyl]-4-hydroxycyclohexanecarboxylic acid]

Kb [1]: 0.158 nM
Compound: CCCCCCCCCCCCC/C=C\[C@@H](SCC(=O)O)[C@]1(O)CC[C@H](C(=O)O)CC1 [Example 10D, [4(R)-[1α,4β,4(Z)]]-4-[1-[(carboxymethyl)thio]-2-hexadecenyl]-4-hydroxycyclohexanecarboxylic acid]

Kb [1]: 0.38 nM
Compound: CCCCCCCCCCCCC/C=C\[C@@H](SCCC(=O)O)[C@]1(O)CC[C@H](C(=O)O)CC1 [Example 10F]
PERCENT INHIBITION ([3]; 0.0002 mg/kg i.v., rechallenge at one minute): 38% | PERCENT INHIBITION ([3]; 0.002 mg/kg i.v., rechallenge at one minute): 52% | PERCENT INHIBITION ([3]; 0.02 mg/kg i.v., rechallenge at one minute): 94% | PERCENT INHIBITION ([3]; 0.1 mg/kg i.d., greater of results at 5 and 20 minutes): 74% | PERCENT INHIBITION ([3]; 0.2 mg/kg i.d., greater of results at 5 and 20 minutes): 93%
